According to patent US8404727B2, “Pharmaceutical composition that includes a dipeptidyl peptidase-IV inhibitor” (Glenmark Pharmaceuticals S.A., priority 2009, dated 2013):
Where a name gives a salt, the structure may show the parent alone.

Assays:
[1] = Compatibility study of melogliptin mesylate with various excipients: related substances (RS) by HPLC; assay type: physicochemical; conditions: sealed glass vial
From the text: Melogliptin Mesylate was Subjected for Compatibility Studies in Solid State Condition with Dry Mixing Technique Using the Following Protocol:
Melogliptin mesylate and various excipients in predetermined w/w ratios were mixed geometrically. Melogliptin mesylate to excipients ratios were selected based on the excipients concentration expected to be used during the development of the formulation. The placebo of each excipient used was kept on respective stability conditions as control.
The samples were stored in glass vials. The vials were closed with rubber stoppers and sealed with aluminum seals, and kept in upright position.
The vials were stored at three storage conditions: 25° C., 30° C. and 40° C.
The samples were analyzed initially, then followed by the end of 1 week, 2 weeks and 4 weeks time periods for related substances (RS), as monitored by HPLC and differential scanning calorimetry (DSC), to study the interaction between melogliptin and various excipients.
The compatibility data in terms of RS generated initially and upon 4 weeks (“4 W”) storage at about 40° C. of various samples are tabulated below.
Brief Analytical Method for Determination of RS in Melogliptin Mesylate:
A reversed-phase gradient HPLC method was developed. The analysis was performed using C18 HPLC column (Phenomenex Gemini 110 A, C-18, 50×4.6 mm, 3 μm). The mobile phase was a gradient mixture of a solution of 1.26 g of ammonium formate in 1000 ml of purified water adjusted to pH 8.4 using 25% v/v ammonia solution (Mobile Phase A) and a solution of 1.26 g of ammonium formate in a mixture of purified water (800 ml) and acetonitrile (200 ml) adjusted to pH 8.4 using 25% v/v ammonia solution (Mobile Phase B). The gradient program is provided below. The flow rate was 1.0 ml/min; injection volume 20 μl; and column temperature was 25° C. Suitable dilutions of the placebo, standard and test samples were injected in the column. Areas for impurity A (eluted at the relative retention time of 0.51) and total RS in the chromatogram were integrated, and accordingly the contents of impurity A and total RS were determined.

[2] = 4 weeks storage at about 40° C.
[3] = dry mix of melogliptin mesylate with excipient, initial

| melting point | RS by HPLC, Impurity A, 4 W [1, 2] | RS by HPLC, Total RS, 4 W [1, 2] | RS by HPLC, Impurity A, Initial [1, 3] | RS by HPLC, Total RS, Initial [1, 3] | Compound |
| --- | --- | --- | --- | --- | --- |
| 158 to 162 °C | – | – | – | – | N=C1[C@@H]2C[C@H](F)CN2C(=O)CN1[C@@H]1CC[C@H](Cn2cncn2)C1 (stereo in doubt) [Example 11, 7-fluoro-1-imino-2-[3-(1H-1,2,4-triazol-1-ylmethyl)cyclopentyl] hexahydropyrrolo[1,2-a]pyrazin-4(1H)-one] |
| 150 to 160 °C | – | – | – | – | N=C1[C@@H]2C[C@H](F)CN2C(=O)CN1[C@@H]1CC[C@H](Cn2cncn2)C1 (stereo in doubt) (as salt: mesylate) [impurity A, 7-fluoro-1-imino-2-[3-(1H-1,2,4-triazol-1-ylmethyl)cyclopentyl] hexahydropyrrolo[1,2-a]pyrazin-4(1H)-one mesylate] |
| – | 0.05 % w/w | 0.13 % w/w | 0.02 % w/w | 0.12 % w/w | N#C[C@@H]1C[C@H](F)CN1C(=O)CN[C@@H]1CC[C@H](Cn2cncn2)C1 [Melogliptin mesylate, (2S,4S)-1-{2-[(3S,1R)-3-(1H-1,2,4-triazol-1-ylmethyl)cyclopentylamino]acetyl}-4-fluoropyrrolidine-2-carbonitrile] |
